Assay results from patent publication US12702697B2, “Compositions and methods for treatment of headache disorders and neuropathic pain” (Washington University, priority 2019, dated 2026).

Columns and labels:
[1] = system: NTG-induced skin hypersensitivity in mice; experiment: Mouse model of chronic migraine (repetitive NTG): hindpaw and facial von Frey thresholds, cheek acetone test; format: in vivo
Experimental: Mouse model of chronic migraine and drug treatments: After measuring baseline nociceptive responses, mice received repetitive intraperitoneal (i.p.) injections of NTG (10 mg/kg in saline with 1% propylene glycol) or vehicle (saline with 1% propylene glycol in saline, 10 mL/kg) every 2 days for 4 or more times as described previously (Pradhan A A, et al. PAIN 2014; 155:269-74). Nocifensive behaviors were measured 2 days after each injection (before the next treatment). NTG (SDM27; Copperhead Chemical, Tamaqua, PA) was freshly diluted from the stock (10% in propylene glycol, aliquoted in airtight glass vials and stored at 4° C.) with saline for every injection. Recombinant mouse IL2 (carrier-free; Biolegend, San Diego, CA) was freshly diluted from the stock (1 mg/mL aliquots at […]) every day. Each mouse received daily i.p. injection of […] IL2 in […] saline. The control mice received daily i.p. injections of […] saline. In Treg depletion experiment, mice received 1 i.p. injection of antibodies against CD25 ([…], BP0012; BioXcell, West Lebanon, NH11) or control IgG (BP0088; BioXcell). The antibody binds to CD25 on Treg cell membrane and depletes Treg cells through Fcg receptor III-mediated antibody-dependent cellular cytotoxicity and antibody-dependent cellular phagocytosis (Setiady Y Y, et al, Eur J Immunol 2010; 40:780-6). Note that on the days that the mouse behaviors were tested, NTG, IL2 and/or antibodies were always injected after completing the behavioral tests.
(§1) Responses to mechanical stimuli on the hindpaw. Mice were habituated in individual clear plexiglass boxes (11×11×15 cm) for 1 to 2 hours. A series of calibrated von Frey filaments was used to apply mechanical stimuli to the plantar surface of the hindpaws. The up-down paradigm was used to determine the 50% withdrawal threshold. The thresholds for both hindpaws were averaged to yield a single value for each mouse.
Cheek acetone test. The acute nocifensive response to acetone-evoked evaporative cooling on mouse cheek was measured as previously described (Constandil L, et al. J Pain 2012; 13:579-89). The day before testing, both cheeks were shaved (6.5×12 mm) under brief anesthesia (2% isoflurane in 100% oxygen). On the test day, mice were habituated in individual plexiglass cylinders (11-cm diameter, 15-cm height) situated in front of 3-way mirrors for 1 to 2 hours. Acetone ([…]) was applied to the shaved cheeks and immediately returned mice to the cylinders. Time spent wiping the treated area was recorded by a video camera and quantified offline. For individual mice, acetone was applied alternatingly to both cheeks at 10-minute intervals, and the duration of behavior was averaged from 4 applications.
Withdrawal responses to facial mechanical stimuli. The hair on mouse forehead (above and between 2 eyes) was shaved the day before testing. On the test day, the experimenter gently held the mouse on the palm with minimal restraint and applied the calibrated von Frey filament perpendicularly to the shaved skin, causing the filament to bend for 5 seconds. A positive response was determined by the following criteria as previously described: mouse vigorously stroked its face with the forepaw, head withdrawal from the stimulus, or head shaking (Elliott M B et al., Headache 2012; 52:966-84). The up-down paradigm was used to determine the 50% withdrawal threshold. […]

[2] = system: Treg cells and CD3+ T cells in dura, TG and DRG; experiment: Immunohistochemistry of CD3+ T cells and EGFP+ Treg cells in dura, TG, DRG and cervical/medullary dorsal horn; format: in vivo, mouse
Experimental: Tissue preparation, immunohistochemistry, and image analysis. Mice were euthanized with i.p. injection of barbiturate (200 mg/kg) and were transcardially perfused with warm 0.1 M phosphate buffered saline (pH 7.2) followed by cold 4% formaldehyde in 0.1 M phosphate buffer (pH 7.2) for fixation. Trigeminal ganglia, lumbar L4 DRG, and the tissues containing the cervical/medullary dorsal horn (from obex to C3 cervical spinal cord) were collected and sectioned at […] in the transverse plane, collected on Superfrost Plus glass slides in sequence and stored at […]
The dura was carefully dissected from the skull using forceps and stained as whole mount. T cells were identified by the rat anti-CD3 antibody (clone 17A2, 1:200; eBioscience, San Diego, CA), and Treg cells were identified with the chicken anti-EGFP (1:1000; AVES Lab, Tigard, OR) antibody in tissues from DEREG mice. […] To quantify CD31 T cells and Treg cells on the dura, we took random, nonoverlapping images (10 per mouse) in areas adjacent to the middle meningeal artery (MMA). To quantify T cells and Treg cells in TG, DRG, and cervical/medullary dorsal horn, all cells on individual sections were counted, and the number was multiplied by 4 to obtain the total number of cells per ganglion in each mouse. […] Representative images were adjusted for contrast and brightness using the same parameter within individual experiments. No other manipulations were made to the images. Image analysis was performed with experimenters blinded to the experimental groups.

[3] = system: nerve injury-induced punctate and dynamic allodynia; conditions: cited from earlier work
[4] = system: NTG/NO donor- or mTBI-induced cutaneous allodynia in rodents; conditions: cited from earlier work; for persistent cephalic mechanical hypersensitivity induced by repeated isosorbide dinitrate: Dallel R, et al., Cephalalgia 2018
[5] = system: sumatriptan-induced cutaneous hypersensitivity in mice; experiment: Mouse model of medication overuse headache (repeated sumatriptan); format: in vivo; conditions: daily sumatriptan 0.6 mg/kg i.p.; male and female C57BL/6J
Experimental: Mouse model of medication overuse headache. After measuring baseline nociceptive responses, mice received daily i.p. injections of sumatriptan succinate (0.6 mg/kg; Fresenius Kabi, Lake Zurich, IL44). Daily ld-IL2 or saline were administered after mice received 2 sumatriptan injections. Facial and hindpaw mechanical thresholds were measured every 2 days. Note that on the days that the mouse behaviors were tested, sumatriptan and/or IL2 were always injected after completing the behavioral tests.
as §1
Withdrawal responses to facial mechanical stimuli. The hair on mouse forehead (above and between 2 eyes) was shaved the day before testing. On the test day, the experimenter gently held the mouse on the palm with minimal restraint and applied the calibrated von Frey filament perpendicularly to the shaved skin, causing the filament to bend for 5 seconds. A positive response was determined by the following criteria as previously described: mouse vigorously stroked its face with the forepaw, head withdrawal from the stimulus, or head shaking (Elliott M B et al., Headache 2012; 52:966-84). The up-down paradigm was used to determine the 50% withdrawal threshold.

O=[N+]([O-])OCC(CO[N+](=O)[O-])O[N+](=O)[O-] [NTG, nitroglycerin, reference compound]
mechanical threshold at the periorbital region ([1]; 2 days after the first NTG injection, female Swiss Webster): substantially reduced | 50% withdrawal thresholds to von Frey filaments on the hindpaws ([1]; NTG 10 mg/kg i.p. every 2 days for 5 times, male and female C57BL/6J): induced a progressive and sustained mechanical hypersensitivity | facial mechanical threshold 3 hours after systemic NTG ([1]; NTG 10 mg/kg i.p., naive C57BL/6J, day 1): significantly reduced | time facial mechanical hypersensitivity was sustained by repeated NTG injections ([1]; male C57BL/6J): at least 4 weeks | duration of acetone-induced cheek wiping ([1]; repeated NTG, female C57BL/6J): persistent increase | duration of acetone-induced cheek wiping ([1]; repetitive NTG, female Swiss Webster): gradual increase | increase in total CD3+ cells in TG ([2]; repeated NTG): 2 fold | proportion of Treg cells among total T cells in TG ([2]; repeated NTG administration): significantly reduced | density of CD3+ T cells in the dura surrounding the MMA or in L4 DRG ([2]; repeated NTG, C57BL/6J): not altered | CD3+ cells per TG ([2]; repeated NTG, female C57BL/6J, n=6): 4135±562 cells per TG | reduction of the ratio of Treg cells among CD3+ T cells in mouse TG ([2]; repeated injections of NTG): 50% | total number of EGFP+ Treg cells in TG and DRG ([2]; repetitive NTG injections, female DEREG mice): neither was significantly altered

CN1CC[C@]23c4c5ccc(O)c4O[C@H]2[C@@H](O)C=C[C@H]3[C@H]1C5 [morphine]
nerve injury-induced punctate allodynia, early stage ([3]; <2 weeks post-injury): attenuates | nerve injury-induced dynamic allodynia ([3]; all stages): does not respond | nerve injury-induced punctate allodynia, late stage ([3]; late stage): not late stage

NCCCC[C@H](NC(=O)[C@@H](Cc1cc(Br)c(O)c(Br)c1)NC(=O)N1CCC(N2Cc3ccccc3NC2=O)CC1)C(=O)N1CCN(c2ccncc2)CC1 [olcegepant]
persistent cephalic mechanical hypersensitivity induced by repeated isosorbide dinitrate [4]: neither sumatriptan nor CGRP receptor antagonist olcegepant prevents

CC(C)NCC(O)COc1cccc2ccccc12 (stereo not drawn) [propranolol]
persistent facial mechanical hypersensitivity from repeated enhancing of NO signaling ([4]; previous studies): can be blocked

CNS(=O)(=O)Cc1ccc2[nH]cc(CCN(C)C)c2c1 [sumatriptan, sumatriptan succinate]
facial and hindpaw mechanical sensitivity [5]: persistent facial and hindpaw mechanical hypersensitivity | persistent cephalic mechanical hypersensitivity induced by repeated isosorbide dinitrate [4]: neither sumatriptan nor CGRP receptor antagonist olcegepant prevents | NTG-induced acute cutaneous allodynia and central sensitization ([4]; rodents): can be blocked

CC1(C)O[C@@H]2[C@@H](CO[C@@]3(COS(N)(=O)=O)OC(C)(C)O[C@@H]23)O1 [topiramate]
NTG-enhanced behavioral responses to acetone-induced cooling of facial skin ([4]; daily treatment, mice): can be blocked
